Assay: Methotrexate concentration in patient serum as function of time after injection, by the radioassay
Type: in vivo
Experimental: The preparation of patient samples, such as patient serum and spinal fluid, is as follows:
1. Take 0.3 ml of fluid to be tested and add to 2.7 ml Buffer B to provide a 1:10 dilution.
2. Take 0.3 ml of 1:10 dilution and add to 2.7 ml of Buffer B to provide a 1:100 dilution.
3. Take 0.3 ml of 1:100 dilution and add to 2.7 ml Buffer B to provide a 1:1000 dilution.
4. Take 0.3 ml of 1:1000 dilution and add to 2.7 ml Buffer B to provide 1:10,000 dilution.
6. Centrifuge for 1 or 2 minutes at 2500 × g.
7. Decant supernate liquid into clean tubes.

- Concentration of Methotrexate (after infusion): 66 µg/mL
- concentration at 24 h (human, 24 hours after injection): 7200 ng/mL
- concentration at 48 h (human, 48 hours after injection): 420 ng/mL
- concentration at 63 h (human, 63 hours after injection): 290 ng/mL
- concentration at 72 h (human, 72 hours after injection): 200 ng/mL
SMILES: CN(Cc1cnc2nc(N)nc(N)c2n1)c1ccc(C(=O)N[C@@H](CCC(=O)O)C(=O)O)cc1 [Methotrexate]

Reference: patent US4043759A (priority 1976, dated 1977)
